Measurements taken from patent publication US10233188B2, “CDK2/4/6 inhibitors” (priority 2016, dated 2019).

Legend:
[1] = molecular target: CDK2/Cyclin E1 (Homo sapiens (Human), UniProt P24941); assay: biochemical; settings: CDK2_Ki (nM), phosphorylated CDK2/Cyclin E1, 150 μM ATP, Morrison tight-binding fit
Experimental: The assay was initiated with the addition of ATP, following a fifteen minutes pre-incubation of enzyme and inhibitor at room temperature in the reaction mixture. The reaction was stopped after 45 minutes at room temperature by the addition of 50 μL of 80 mM EDTA, pH 7.5.

[2] = molecular target: CDK6/Cyclin D1 (Homo sapiens (Human), UniProt Q00534); assay: biochemical; settings: CDK6_Ki (nM), non-phosphorylated CDK6/Cyclin D1, 2 mM ATP, Morrison fit
Chain of CDK6/Cyclin D1 (Q00534 whole entry): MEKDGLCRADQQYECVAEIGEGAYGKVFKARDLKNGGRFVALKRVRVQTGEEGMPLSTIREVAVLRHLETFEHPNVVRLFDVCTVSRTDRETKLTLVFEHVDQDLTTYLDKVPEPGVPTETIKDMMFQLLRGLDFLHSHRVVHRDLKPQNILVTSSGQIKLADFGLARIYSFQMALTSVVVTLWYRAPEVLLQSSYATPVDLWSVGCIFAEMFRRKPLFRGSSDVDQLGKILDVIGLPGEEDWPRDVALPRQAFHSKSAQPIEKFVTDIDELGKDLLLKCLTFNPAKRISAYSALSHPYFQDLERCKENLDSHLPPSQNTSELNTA
Chain of CDK6/Cyclin D1 (P24385 whole entry partner): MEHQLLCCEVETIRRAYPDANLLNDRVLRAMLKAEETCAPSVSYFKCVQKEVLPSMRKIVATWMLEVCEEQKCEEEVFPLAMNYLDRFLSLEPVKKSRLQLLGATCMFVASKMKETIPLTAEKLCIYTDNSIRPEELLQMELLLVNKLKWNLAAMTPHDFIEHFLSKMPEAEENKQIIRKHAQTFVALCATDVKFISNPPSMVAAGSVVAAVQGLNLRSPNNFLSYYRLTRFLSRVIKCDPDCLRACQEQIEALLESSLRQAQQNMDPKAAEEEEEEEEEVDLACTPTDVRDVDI

| SMILES | Ki [1] [nM] | Ki [2] [nM] |
| --- | --- | --- |
| Cc1cc2cnc(NC3CCN(S(=O)(=O)C4CCS(=O)(=O)C4)CC3)nc2n([C@@H]2CCC[C@@]2(C)O)c1=O (single isomer, unassigned; isomer d) [Example 109, (−)-2-[(1-{[(3ξ)-1,1-dioxidotetrahydrothiophen-3-yl]sulfonyl}piperidin-4-yl)amino]-8-[(1R*,2R*)-2-hydroxy-2-methylcyclopentyl]-6-methylpyrido[2,3-d]pyrimidin-7(8H)-one-Isomer D] | 0.14 | 0.19 |
| CS(=O)(=O)N1CCC(Nc2ncc3ccc(=O)n([C@H]4CCC[C@H](O)C4)c3n2)CC1 [Example 211, 8-[(1S,3S)-3-hydroxycyclohexyl]-2-{[1-(methylsulfonyl)piperidin-4-yl]amino}pyrido[2,3-d]pyrimidin-7(8H)-one] | 2.19 | 2.22 |
| CNS(=O)(=O)N1CCC(Nc2ncc3ccc(=O)n([C@@H]4CCC[C@@H]4C)c3n2)CC1 [Example 44, N-methyl-4-({8-[(1R,2S)-2-methylcyclopentyl]-7-oxo-7,8-dihydropyrido[2,3-d]pyrimidin-2-yl}amino)piperidine-1-sulfonamide] | 0.09 | 0.82 |
| Cn1cc(S(=O)(=O)N2CCC(Nc3ncc4ccc(=O)n([C@H]5CCC[C@]5(C)O)c4n3)CC2)cn1 (single isomer, unassigned) [Example 83, (+)-8-[(1R*,2R*)-2-hydroxy-2-methylcyclopentyl]-2-({1-[(1-methyl-1H-pyrazol-4-yl)sulfonyl]piperidin-4-yl}amino)pyrido[2,3-d]pyrimidin-7(8H)-one] | 1.98 | 9.77 |
| C[C@H]1CCC[C@H]1n1c(=O)c(CCO)cc2cnc(NC3CCN(S(C)(=O)=O)CC3)nc21 [Example 40, 6-(2-hydroxyethyl)-8-[(1R,2S)-2-methylcyclopentyl]-2-{[1-(methylsulfonyl)piperidin-4-yl]amino}pyrido[2,3-d]pyrimidin-7(8H)-one] | 0.08 | 0.14 |
| COCCS(=O)(=O)N1CCC(Nc2ncc3ccc(=O)n([C@@H]4CCCC4(C)O)c3n2)CC1 (single isomer, unassigned) [Example 72, (−)-8-[(1R*,2R*)-2-hydroxy-2-methylcyclopentyl]-2-({1-[(2-methoxyethyl)sulfonyl]piperidin-4-yl}amino)pyrido[2,3-d]pyrimidin-7(8H)-one] | 0.42 | 1.09 |
| CS(=O)(=O)N1CCC(Nc2ncc3cc(CC(N)=O)c(=O)n([C@@H]4CCC[C@@H](O)C4)c3n2)CC1 (single isomer, unassigned) [Example 213, (+)-2-(8-[(1R*,3R*)-3-hydroxycyclohexyl]-2-{[1-(methylsulfonyl)piperidin-4-yl]amino}-7-oxo-7,8-dihydropyrido[2,3-d]pyrimidin-6-yl)acetamide] | 1.73 | 9.15 |
| CS(=O)(=O)N1CCC(Nc2ncc3ccc(=O)n([C@H]4CC[C@@H](O)CC4)c3n2)CC1 [Example 215, 8-(cis-4-hydroxycyclohexyl)-2-{[1-(methylsulfonyl)piperidin-4-yl]amino}pyrido[2,3-d]pyrimidin-7(8H)-one] | 1.57 | 2.84 |
| COCCc1cc2cnc(N[C@H]3CCN(S(C)(=O)=O)C[C@@H]3F)nc2n(C2CCCC2)c1=O (single isomer, unassigned) [Example 158, (−)-8-cyclopentyl-2-{[(3S*,4S*)-3-fluoro-1-(methylsulfonyl)piperidin-4-yl]amino}-6-(2-methoxyethyl)pyrido[2,3-d]pyrimidin-7(8H)-one] | 3.89 | 0.66 |
| CS(=O)(=O)N1CCC(Nc2ncc3cc(CC(F)F)c(=O)n([C@@H]4CCC[C@@H](O)C4)c3n2)CC1 [Example 140, 6-(2,2-difluoroethyl)-8-[(1R,3R)-3-hydroxycyclohexyl]-2-{[1-(methylsulfonyl)piperidin-4-yl]amino}pyrido[2,3-d]pyrimidin-7(8H)-one] | 1.97 | 0.63 |
| Cc1cc2cnc(NC3CCN(S(C)(=O)=O)CC3)nc2n([C@@H]2COC[C@@]2(C)O)c1=O (single isomer, unassigned) [Example 197, (−)-8-[(3R*,4S*)-4-hydroxy-4-methyltetrahydrofuran-3-yl]-6-methyl-2-{[1-(methylsulfonyl)piperidin-4-yl]amino}pyrido[2,3-d]pyrimidin-7(8H)-one] | 4.26 | 4.78 |
| Cc1cc2cnc(NC3CCN(S(=O)(=O)C(F)(F)F)CC3)nc2n([C@@H]2CCC[C@@]2(C)O)c1=O (single isomer, unassigned) [Example 181, (−)-8-[(1R*,2R*)-2-hydroxy-2-methylcyclopentyl]-6-methyl-2-({1-[(trifluoromethyl)sulfonyl]piperidin-4-yl}amino)pyrido[2,3-d]pyrimidin-7(8H)-one] | 1.32 | 0.85 |
| CS(=O)(=O)N1CCC(Nc2ncc3ccc(=O)n([C@@H]4C[C@@H](O)CC[C@H]4F)c3n2)CC1 (single isomer, unassigned) [Example 218, (−)-8-[(1S*,2S*,5R*)-2-fluoro-5-hydroxycyclohexyl]-2-{[1-(methylsulfonyl)piperidin-4-yl]amino}pyrido[2,3-d]pyrimidin-7(8H)-one] | 6.28 | 14.3 |
| COC(C)(C)CNS(=O)(=O)N1CCC(Nc2ncc3cc(C)c(=O)n([C@@H]4CCC[C@@]4(C)O)c3n2)CC1 (single isomer, unassigned) [Example 98, (−)-4-({8-[(1R*,2R*)-2-hydroxy-2-methylcyclopentyl]-6-methyl-7-oxo-7,8-dihydropyrido[2,3-d]pyrimidin-2-yl}amino)-N-(2-methoxy-2-methylpropyl)piperidine-1-sulfonamide] | 0.33 | 0.74 |
| COCc1cc2cnc(NC3CCN(S(C)(=O)=O)CC3)nc2n([C@@H]2CCC[C@@H]2C)c1=O [Example 48, 6-(methoxymethyl)-8-[(1R,2S)-2-methylcyclopentyl]-2-{[1-(methylsulfonyl)piperidin-4-yl]amino}pyrido[2,3-d]pyrimidin-7(8H)-one] | 1.39 | 0.54 |
| CS(=O)(=O)N1CCC(Nc2ncc3cc(CC(N)=O)c(=O)n([C@H]4CCC[C@H](O)C4)c3n2)CC1 (single isomer, unassigned) [Example 214, (−)-2-(8-[(1R*,2R*)-3-hydroxycyclohexyl]-2-{[1-(methylsulfonyl)piperidin-4-yl]amino}-7-oxo-7,8-dihydropyrido[2,3-d]pyrimidin-6-yl)acetamide] | 27.8 | 83.3 |
| CCS(=O)(=O)N1CCC(Nc2ncc3ccc(=O)n([C@H]4CCC[C@]4(C)O)c3n2)CC1 (single isomer, unassigned) [Example 77, (+)-2-{[1-(ethylsulfonyl)piperidin-4-yl]amino}-8-[(1R*,2R*)-2-hydroxy-2-methylcyclopentyl]pyrido[2,3-d]pyrimidin-7(8H)-one] | 4.07 | 6.6 |

More lines, in order of falling Ki [1], values ahead:

| Ki [1] [nM] | Ki [2] [nM] | SMILES |
| --- | --- | --- |
| 20.9 | 10.1 | C[C@@]1(O)CCC[C@H]1n1c(=O)c(Cl)cc2cnc(N[C@@H]3CCN(S(C)(=O)=O)C[C@@H]3F)nc21 (single isomer, unassigned) [Example 192, (+)-6-chloro-2-{[(3R*,4S*)-3-fluoro-1-(methylsulfonyl)piperidin-4-yl]amino}-8-[(1R,2R)-2-hydroxy-2-methylcyclopentyl]pyrido[2,3-d]pyrimidin-7(8H)-one] |
| 6.03 | 1.82 | CS(=O)(=O)N1CCC(Nc2ncc3cc(Cl)c(=O)n([C@@H]4CC[C@@H](O)C4)c3n2)CC1 (single isomer, unassigned) [Example 170, (−)-6-chloro-8-[(1R*,3R*)-3-hydroxycyclopentyl]-2-{[1-(methylsulfonyl)piperidin-4-yl]amino}pyrido[2,3-d]pyrimidin-7(8H)-one] |
| 1.99 | 4.15 | Cc1cc2cnc(NC3CCN(S(=O)(=O)C4CC4)CC3)nc2n([C@H]2CCC[C@]2(C)O)c1=O (single isomer, unassigned) [Example 113, (+)-2-{[1-(cyclopropylsulfonyl)piperidin-4-yl]amino}-8-[(1R*,2R*)-2-hydroxy-2-methylcyclopentyl]-6-methylpyrido[2,3-d]pyrimidin-7(8H)-one] |
| 0.8 | 2.44 | C[C@H]1[C@@H](O)CC[C@@H]1n1c(=O)ccc2cnc(NC3CCN(S(C)(=O)=O)CC3)nc21 (single isomer, unassigned) [Example 202, (+)-8-[(1R*,2S*,3R*)-3-hydroxy-2-methylcyclopentyl]-2-{[1-(methylsulfonyl)piperidin-4-yl]amino}pyrido[2,3-d]pyrimidin-7(8H)-one] |
| 0.25 | 1.53 | C[C@@]1(O)CCC[C@H]1n1c(=O)ccc2cnc(NC3CCN(S(=O)(=O)c4nncs4)CC3)nc21 (single isomer, unassigned) [Example 80, (−)-8-[(1R*,2R*)-2-hydroxy-2-methylcyclopentyl]-2-{[1-(1,3,4-thiadiazol-2-ylsulfonyl)piperidin-4-yl]amino}pyrido[2,3-d]pyrimidin-7(8H)-one] |
| 0.24 | 1.06 | Cc1cc2cnc(NC3CCN(S(=O)(=O)NC4CCOCC4)CC3)nc2n([C@@H]2CCC[C@@]2(C)O)c1=O (single isomer, unassigned) [Example 96, (−)-4-({8-[(1R*,2R*)-2-hydroxy-2-methylcyclopentyl]-6-methyl-7-oxo-7,8-dihydropyrido[2,3-d]pyrimidin-2-yl}amino)-N-(tetrahydro-2H-pyran-4-yl)piperidine-1-sulfonamide] |
| 0.2 | 1.01 | C[C@@]1(O)CCC[C@H]1n1c(=O)ccc2cnc(NC3CCN(S(=O)(=O)C4CC4)CC3)nc21 (single isomer, unassigned) [Example 74, (−)-2-{[1-(cyclopropylsulfonyl)piperidin-4-yl]amino}-8-[(1R*,2R*)-2-hydroxy-2-methylcyclopentyl]pyrido[2,3-d]pyrimidin-7(8H)-one] |
| 0.12 | 0.24 | COCCS(=O)(=O)N1CCC(Nc2ncc3ccc(=O)n([C@@H]4CCC[C@@H]4C)c3n2)CC1 [Example 52, 2-({1-[(2-methoxyethyl)sulfonyl]piperidin-4-yl}amino)-8-[(1R,2S)-2-methylcyclopentyl]pyrido[2,3-d]pyrimidin-7(8H)-one] |
